Source: patent publication US20250302882A1, “PHARMACEUTICAL COMPOSITION FOR PREVENTING OR TREATING NEURODEGENERATIVE DISEASE, CONTAINING, AS ACTIVE INGREDIENTS, CYCLODEXTRIN AND STEM CELLS IN WHICH VEGF IS OVEREXPRESSED” (KYUNGPOOK NATIONAL UNIVERSITY INDUSTRY-ACADEMIC COOPERATION …, priority 2017, published 2025)

Assays:
[1] = introduced into SVZ; Application No. 10-2017-0015676; cited from earlier work
NP-C mice [2] = assay: Survival rate of NP-C mice; format: in vivo; conditions: VEGFNP-C mice (brain cell-specific VEGF-overexpressed NP-C mice); cyclodextrin 4000 mg/kg once a week s.c.; compared to NP-C mice given cyclodextrin alone
From the text: (§1) In Balb/C (Orient, wild type), NPC mutant mice in which an NPC1 gene is deleted (RIKEN, received from Japan, NP-C mice; a weight was smaller than that of normal mice with the same week old, a serious mobility loss was shown from 4 to 6 week old to show tremors and seizures of the limbs, and a lifespan was approximately 9 to 10 weeks), and brain cell-specific VEGF-overexpressed NP-C mice (VEGFNP-C mice; produced through mating of VEGFtg mice overexpressing VEGF in a brain cell-specific promoter (received from University of Heidelberg, Germany, Yaoming Wang et al., (2005)) and NP-C mice, a lifespan was approximately 9 to 10 weeks like the NP-C mice, and brain inflammation and lipid accumulation were alleviated as compared to the NP-C mice), systems thereof were kept by genotyping through PCR. The mice were disposed in a test group by using a block randomization method. In order to eliminate prejudice, […]. All mice tests were approved by Kyungpook National University Institutional Animal Care and Use Committee (IACUC).
(§2) Administration of cyclodextrin (Sigma, H107) and VEGF-overexpressed neural stem cells was performed on a schedule as illustrated in FIG. 1. Specifically, NP-C mice or VEGFNP-C mice were subcutaneously injected with cyclodextrin by 4000 mg/kg from 1 week old. […]

NP-C mice [3] = assay: Change in weight of NP-C mice; format: in vivo; conditions: VEGFNP-C mice; cyclodextrin 4000 mg/kg once a week s.c.; compared to NP-C mice given cyclodextrin alone
From the text: as §1, §2

NP-C mice [4] = assay: Mobility by Rota-rod and Beam tests; format: in vivo; conditions: for each week age
Procedure: (§3) Administration of cyclodextrin (Sigma, H107) and VEGF-overexpressed neural stem cells was performed on a schedule as illustrated in FIG. 1. Specifically, NP-C mice or VEGFNP-C mice were subcutaneously injected with cyclodextrin by 4000 mg/kg from 1 week old. When the NP-C mice injected with the cyclodextrin were 4-week-old, a cannula was mounted in a subventricular zone (SVZ) for combined injection into the SVZ of the VEGF-overexpressed neural stem cells, and the VEGF-overexpressed neural stem cells (to 1×10^6 cell/3 ul) were injected into the SVZ twice a week. A cell injection rate was implanted at a flow rate of 0.3 μl/min.
In order to confirm the mobility of a mouse in each test group, Rota-rod and Beam tests were performed. In the Rota-rod test (Ugo Basile, Comerio, VA, Italy), a Rota-rod movement was performed three times or more at a rotation rate of 4 rpm using a machine equipped with a rod of a diameter of 3 cm which was appropriately processed for providing a grip, and then an endurance time of a test animal was measured in units of second and an average value thereof was recorded. […] In the Beam test, a mouse was placed on a starting point of a rod of a width of 6 mm or 12 mm and then a time taken to move to an end point was measured. […]

NP-C mice [5] = assay: Inflammatory response of the cortex by GFAP (astrocyte) staining; format: in vivo; conditions: 10-week-old
Procedure: as §3
(§4) The brain tissue (cortex or cerebellum) of a mouse was cut to a thickness of 50 μm using vibratome, and then cultured with anti-GFAP (rabbit, 1:500, DAKO) and anti-Calbindin (rabbit, 1:100, milipore). In addition, filipin staining (Polysciences, Inc.) was performed on tissues of each organ from the mouse to confirm the accumulation degree of cholesterol. Cortex, cerebellum, liver, lung, kidney, and spleen sites were analyzed using a laser scanning confocal microscope or an Olympus BX51 microscope equipped with Fluoview SV1000 imaging software (Olympus FV1000, Japan). A percentage of an area of a stained area to an area of total tissues was quantified using Metamorph software (Molecular Devices). […]

NP-C mice [6] = assay: Inflammatory response of the cerebellum by GFAP (astrocyte) staining; format: in vivo; conditions: 10-week-old
Procedure: as §3, §4

NP-C mice [7] = assay: Cerebellar neural cells by Calbindin staining (Purkinje neuron); format: in vivo; conditions: VEGFNP-C mice; 10-week-old
Procedure: as §3, §4

NP-C mice [8] = assay: Lipid accumulation (sphingosine, sphingomyelin) in cortex, cerebellum and organs, UPLC; format: in vivo; conditions: VEGFNP-C mice, 10-week-old
Procedure: as §3
The cortex, the cerebellum, and organs (liver, lung, kidney, spleen, etc.) of each mouse were extracted, added with a homogeneous buffer solution containing 50 mM HEPES (Invitrogen), a 150 mM sodium chloride solution (NaCl) (Sigma), 0.2% Igepal CA-630 (Sigma), and a protease inhibitor (Milipore), homogenized using a homogenizer, and then centrifuged at 13,000 rpm for 10 minutes. After 10 minutes, additional centrifugation was performed at 13,000 rpm for 30 minutes. […] A dry lipid extract obtained above was resuspended in 0.2% Igepal CA-630 (Sigma), and then the concentration of each lipid was measured using a UPLC system. […]

NP-C mice [9] = assay: Cholesterol accumulation by Amplex red assay and Filipin staining; format: in vivo; conditions: VEGFNP-C mice; 10-week-old; cortex, cerebellum and organs
Procedure: as §3, §4

Substance | medicinal effect by improvement of an SVZ environment [1] | survival rate (NP-C mice [2]) | weight (NP-C mice [3]) | mobility (Rota-rod and Beam tests) (NP-C mice [4]; NP-C mice) | mobility (Rota-rod and Beam tests) (NP-C mice [4]; VEGFNP-C mice) | inflammatory response (GFAP: astrocyte) in the cortex (NP-C mice [5]; NP-C mice) | inflammatory response (GFAP: astrocyte) in the cortex (NP-C mice [5]; VEGFNP-C mice) | inflammatory response (GFAP: astrocyte) in the cerebellum (NP-C mice [6]; NP-C mice) | inflammatory response (GFAP: astrocyte) in the cerebellum (NP-C mice [6]; VEGFNP-C mice) | reduced neural cells (Calbindin: Purkinje neuron) in the cerebellum (NP-C mice [7]) | sphingosine accumulated in the cortex and the cerebellum (NP-C mice [8]) | sphingomyelin accumulation (NP-C mice [8]; liver, lung, kidney, spleen, cortex and cerebellum) | accumulation of cholesterol (NP-C mice [9])
VEGF | could not be achieved |  |  |  |  |  |  |  |  |  |  |  | 
cyclodextrin |  | significantly increased | significantly increased | improved mobility compared to NP-C mice | most effective | somewhat alleviated | more effectively improved | alleviated to a certain level | more effectively alleviated | most efficiently increased | most effectively reduced | most effectively reduced | more reduced
